Laboratory results published in patent US10344335B2, “Mutant calreticulin for the diagnosis of myeloid malignancies” (CEMM—FORSCHUNGSZENTRUM FUER MOLEKULARE MEDIZIN GMBH, priority 2013, dated 2019).

Tested on: Ba/F3 cells expressing empty vector (GFP), CALR wild type or CALR del52
Experiment: Sensitivity of Ba/F3 cells to the inhibitor SAR302503 (CellTiter-Glo cell viability)
Format: cell-based, murine
Conditions: Ba/F3 cells expressing CALR wild type vs CALR del52; 48 hours; 10 ng/ml interleukin-3; dilution series, highest concentration 40 μM; listed as JAK2 kinase inhibitor
Method: Ba/F3 cells expressing the empty vector (GFP), CALR wild type (CALR wt-GFP) or CALR mutant (CALR del52-GFP) were analyzed by defining cell viability after 48 hours in presence of decreasing SAR302503. For relative viability, relative luminescence units were normalized to the DMSO control. Error bars represent standard error of the mean.
To define the sensitivity to the inhibitor SAR302503 (Sanofi), Ba/F3 cells were plated in 96-well plates at 25000 cells per well in triplicates on a dilution series of SAR302503 (highest concentration 40 μM) and in presence of 10 ng/ml interleukin-3. After 48 hours cell viability was determined by the CellTiter-Glo® Luminescent Cell Viability Assay (Promega).

**Q.** `Cc1cnc(Nc2ccc(OCCN3CCCC3)cc2)nc1Nc1cccc(S(=O)(=O)NC(C)(C)C)c1` [SAR302503] was tested. Which “sensitivity of cells to SAR302503 (cell viability)” value did it give?
**A.** suppressed equally
